Data published in ChEMBL document CHEMBL2074339, “The use of a dendrimer-propranolol prodrug to bypass efflux transporters and enhance oral bioavailability” (J Control Release, 2004).

Tests used:
[1] = biological target: T1, ATP-dependent translocase ABCB1 (Homo sapiens, UniProt P08183); assay: TP_TRANSPORTER: transepithelial transport in Caco2 cells; format: functional, cell-based; conditions: caco-2
[2] = biological target: T1, ATP-dependent translocase ABCB1; assay: TP_TRANSPORTER: transepithelial transport of propranolol in Caco2 cells; format: functional, cell-based; conditions: caco-2

T1 sequence (P08183 whole entry): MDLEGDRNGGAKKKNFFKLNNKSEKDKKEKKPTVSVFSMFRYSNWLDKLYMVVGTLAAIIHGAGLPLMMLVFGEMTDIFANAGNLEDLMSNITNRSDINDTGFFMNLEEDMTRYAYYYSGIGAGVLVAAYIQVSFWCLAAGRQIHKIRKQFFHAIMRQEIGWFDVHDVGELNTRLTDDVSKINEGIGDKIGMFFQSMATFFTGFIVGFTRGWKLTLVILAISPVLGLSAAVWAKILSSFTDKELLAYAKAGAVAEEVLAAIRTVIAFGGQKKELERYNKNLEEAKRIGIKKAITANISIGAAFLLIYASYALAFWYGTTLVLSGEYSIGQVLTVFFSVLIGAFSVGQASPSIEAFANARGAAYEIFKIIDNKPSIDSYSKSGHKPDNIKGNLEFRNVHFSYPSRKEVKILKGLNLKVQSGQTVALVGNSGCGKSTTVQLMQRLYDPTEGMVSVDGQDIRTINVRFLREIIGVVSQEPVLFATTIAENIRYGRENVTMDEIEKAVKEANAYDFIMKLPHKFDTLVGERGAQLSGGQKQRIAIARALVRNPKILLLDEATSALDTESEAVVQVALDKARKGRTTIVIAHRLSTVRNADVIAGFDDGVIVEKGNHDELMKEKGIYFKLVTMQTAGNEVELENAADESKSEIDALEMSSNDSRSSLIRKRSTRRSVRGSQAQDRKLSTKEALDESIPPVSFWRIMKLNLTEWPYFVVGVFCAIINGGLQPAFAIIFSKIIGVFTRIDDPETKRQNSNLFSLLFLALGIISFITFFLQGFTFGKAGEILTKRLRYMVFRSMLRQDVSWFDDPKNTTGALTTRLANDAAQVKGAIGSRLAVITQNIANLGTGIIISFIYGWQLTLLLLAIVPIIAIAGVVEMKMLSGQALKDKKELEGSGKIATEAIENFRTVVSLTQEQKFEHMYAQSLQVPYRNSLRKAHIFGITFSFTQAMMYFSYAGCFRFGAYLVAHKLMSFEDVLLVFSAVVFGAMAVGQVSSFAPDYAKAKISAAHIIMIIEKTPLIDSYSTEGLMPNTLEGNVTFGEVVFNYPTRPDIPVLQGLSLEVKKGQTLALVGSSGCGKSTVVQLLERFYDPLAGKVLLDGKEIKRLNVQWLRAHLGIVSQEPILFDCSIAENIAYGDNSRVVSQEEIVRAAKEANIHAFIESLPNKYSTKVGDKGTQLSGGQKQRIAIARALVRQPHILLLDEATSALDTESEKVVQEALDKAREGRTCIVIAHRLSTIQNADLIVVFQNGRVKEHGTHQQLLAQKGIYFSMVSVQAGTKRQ

Activity [1] | Activity [2] | Compound
substrate [+] |  | CC(C)NCC(O)COc1cccc2ccccc12 (configuration not stated) [PROPRANOLOL]
 | is not an inhibitor [-] | G3 PAMAM DENDRIMER
